Experimental data reported in ChEMBL document CHEMBL1777794, “Optimization of the physicochemical and pharmacokinetic attributes in a 6-azauracil series of P2X7 receptor antagonists leading to the discovery of the clinical candidate CE-224,535” (Bioorg Med Chem Lett, 2011).
Blank lines part the entries; values can stand above or below the compound they belong to.

Legend:
[1] = target: T1, P2X purinoceptor 7 (Homo sapiens) (UniProt Q99572); assay: Antagonist activity at P2X7 receptor in human LPS-stimulated monocytes assessed as inhibition of ATP-induced IL1-beta release at 5 uM by ELISA; assay type: functional, cell-based
T1 sequence (whole entry): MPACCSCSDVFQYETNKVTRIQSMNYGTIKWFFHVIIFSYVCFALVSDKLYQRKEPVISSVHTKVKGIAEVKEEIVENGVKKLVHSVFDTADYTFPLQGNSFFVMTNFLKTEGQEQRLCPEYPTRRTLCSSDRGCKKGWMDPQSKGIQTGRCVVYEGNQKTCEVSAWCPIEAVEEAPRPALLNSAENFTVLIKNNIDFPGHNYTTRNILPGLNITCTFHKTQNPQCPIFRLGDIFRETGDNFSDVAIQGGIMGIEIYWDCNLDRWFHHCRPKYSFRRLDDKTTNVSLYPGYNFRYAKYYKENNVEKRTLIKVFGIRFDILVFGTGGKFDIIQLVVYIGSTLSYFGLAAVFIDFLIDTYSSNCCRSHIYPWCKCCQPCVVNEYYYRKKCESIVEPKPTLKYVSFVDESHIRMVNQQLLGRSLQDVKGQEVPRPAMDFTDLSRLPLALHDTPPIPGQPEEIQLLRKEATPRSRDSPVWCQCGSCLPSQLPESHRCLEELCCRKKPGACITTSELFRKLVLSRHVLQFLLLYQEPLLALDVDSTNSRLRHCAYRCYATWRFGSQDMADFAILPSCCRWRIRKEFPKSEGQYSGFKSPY

[2] = target: T2, P2X purinoceptor 7 (Homo sapiens, UniProt Q99572); assay: Antagonist activity at P2X7 receptor in human LPS-stimulated monocytes assessed as inhibition of ATP-induced IL1-beta release by ELISA; assay type: functional, cell-based
T2 sequence (Q99572 whole entry): T1 sequence (whole entry)

[3] = target: T2, P2X purinoceptor 7; assay: Antagonist activity at P2X7 receptor expressed in HEK293 cells assessed as inhibition of ATP-induced YOPRO-1 uptake; assay type: functional, cell-based
[4] = target: T1, P2X purinoceptor 7 (Homo sapiens); assay: (§1) Antagonist activity at P2X7 receptor in human LPS-stimulated monocytes assessed as inhibition of ATP-induced IL1-beta release by ELISA in presence of human blood; assay type: functional, cell-based
[5] = target: T2, P2X purinoceptor 7; assay: as §1; assay type: functional, cell-based
[6] = Half life in dog; assay type: ADME, organism-based, Canis lupus familiaris; settings: in vivo
[7] = Half life in monkey; assay type: ADME, organism-based, Macaca mulatta; settings: rhesus monkey, in vivo
[8] = Oral bioavailability in dog; assay type: ADME, organism-based, Canis lupus familiaris; settings: in vivo
[9] = Fraction unbound in human plasma; assay type: ADME, cell-free
[10] = Cmax in dog; assay type: ADME, organism-based, Canis lupus familiaris; settings: in vivo
[11] = Volume of distribution at steady state in monkey; assay type: ADME, organism-based, Macaca mulatta; settings: rhesus monkey, in vivo; read-out: Vdss
[12] = Cmax in rat at 5 mg/kg, po; assay type: ADME, organism-based; set-up: dose 5 mg/kg, route oral; settings: in vivo
[13] = Oral bioavailability in rat at 5 mg/kg; assay type: ADME, organism-based; settings: in vivo
[14] = Plasma clearance in monkey; settings: rhesus monkey
[15] = in vivo; settings: dog, plasma
[16] = Volume of distribution at steady state in dog; assay type: ADME, organism-based, Canis lupus familiaris; settings: in vivo, read-out: Vdss
[17] = Oral bioavailability in monkey; assay type: ADME, organism-based, Macaca mulatta; settings: rhesus monkey, in vivo
[18] = in vivo; settings: rat, plasma
[19] = Half life in rat; assay type: ADME, organism-based; settings: in vivo
[20] = Volume of distribution at steady state in rat; assay type: ADME, organism-based; settings: in vivo, read-out: Vdss
[21] = Cmax in monkey; assay type: ADME, organism-based, Macaca mulatta; settings: rhesus monkey, in vivo

Compound: O=C(NCC1CCCCC1)c1cc(-n2ncc(=O)[nH]c2=O)ccc1Cl
IC50 [2]: 1300 nM

Compound: CCCCC(CC)CNC(=O)c1cc(-n2ncc(=O)[nH]c2=O)ccc1Cl (centres undefined)
IC50 [3]: 1100 nM

Compound: CCCCC(CC)CN(C)C(=O)c1cc(-n2ncc(=O)[nH]c2=O)ccc1Cl (centres undefined)
inhibition [1]: 0%

Compound: Cn1c(=O)cnn(-c2ccc(Cl)c(C(=O)NCC3(O)CCCCCC3)c2)c1=O
IC50 [2]: 42 nM

Compound: O=C(NCC1(O)CCCCCC1)c1cc(-n2ncc(=O)[nH]c2=O)ccc1Cl
IC90 [4]: 1000 nM | IC50 [5]: 447 nM | half-life [6]: 3.8 h | half-life [7]: 3.4 h | bioavailability [8]: 84% | fraction unbound [9]: 0.18 | Cmax [10]: 7400 ng/mL | Vd [11]: 1.5 L/kg | Cmax [12]: 1300 ng/mL | IC50 [2]: 83 nM | bioavailability [13]: 75% | clearance [14]: 21 mL/min/kg | clearance [15]: 3.8 mL/min/kg | Vd [16]: 0.6 L/kg | bioavailability [17]: 72% | clearance [18]: 20 mL/min/kg | half-life [19]: 3.2 h | Vd [20]: 8.5 L/kg | IC50 [3]: 15 nM | Cmax [21]: 600 ng/mL

Compound: CC(C)Cn1c(=O)cnn(-c2ccc(Cl)c(C(=O)NCC3(O)CCCCCC3)c2)c1=O
IC50 [5]: 200 nM | IC50 [2]: 34 nM

Compound: CCCCC(CC)CNC(=O)c1cccc(-n2ncc(=O)[nH]c2=O)c1 (centres undefined)
inhibition [1]: 0%

Compound: CCCOCCNC(=O)c1cc(-n2ncc(=O)[nH]c2=O)ccc1Cl
IC50 [2]: > 5000 nM

Results, then the compound that gave them:

inhibition [1]: 22%
Compound: O=C(NCCc1cccnc1)c1cc(-n2ncc(=O)[nH]c2=O)ccc1Cl

inhibition [1]: 15%
Compound: O=C(NCCc1ccccn1)c1cc(-n2ncc(=O)[nH]c2=O)ccc1Cl

inhibition [1]: 0%
Compound: O=C(NCCCc1ccccc1)c1cc(-n2ncc(=O)[nH]c2=O)ccc1Cl

IC50 [2]: 940 nM
Compound: O=C(NCCc1ccccc1)c1cc(-n2ncc(=O)[nH]c2=O)ccc1Cl

IC50 [2]: 2800 nM
Compound: CCCCCNC(=O)c1cc(-n2ncc(=O)[nH]c2=O)ccc1Cl

inhibition [1]: 22%
Compound: O=C(NCCc1ccncc1)c1cc(-n2ncc(=O)[nH]c2=O)ccc1Cl
